The target in experiment [1] is T1, Pim-2 (Homo sapiens (Human), UniProt Q9P1W9). Kind of experiment: Pim-Mn enzyme assay (HTRF, 384-well), Pim-2. The experiment is classed as biochemical. To be noted: read-out: Pim-2-Mn IC50 IP.
Experiment [2] has as its target T2, Pim-1 (Homo sapiens (Human), UniProt P11309). Kind of experiment: Pim enzyme assay (HTRF, 96-well), Pim-1. To be noted: full length recombinant Pim-1, biotinylated-BAD (S112) peptide, 10-point curve, 2 h RT, read-out: Pim-1 IC50 IP. In kind it is biochemical. In outline: (§1)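 HTRF detection of biotinylated BAD (S112) phosphorylation by full-length recombinant His-tagged Pim-1 or Pim-2 in 60 mM Hepes pH 7.0, 0.05% BSA, 2 mM DTT at 22 °C: 2 h for Pim-1, 45 min for Pim-2. Stopped with EDTA; IC50 from 4-parameter logistic fit of percent of control.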
On the technique in general: Time-resolved FRET reads energy transfer from a long-lived donor to a nearby acceptor.

In experiment [3] the test system is KMS-12-BM myeloma cell line. In words: Pim KMS-12 cell assay (phospho-BAD S112 / total BAD, MSD).
Experiment [4] deals with T2, Pim-1. Kind of experiment: Pim-Mn enzyme assay (HTRF, 384-well), Pim-1. In kind it is biochemical. The conditions noted are these: read-out: Pim-1-Mn IC50 IP.
The target of experiment [5] is T1, Pim-2. In words: Pim enzyme assay (HTRF, 96-well), Pim-2. To be noted: full length recombinant Pim-2, biotinylated-BAD (S112) peptide, 10-point curve, 45 min RT, read-out: Pim-2 IC50 IP. In kind it is biochemical. The procedure, abridged: as §1
Setting [6] is: Pim-2 enzyme 0.5 pM, ATP 1.5 μM, BAD (S112) 0.5 μM, HTRF, 22-point curve.
[7] abbreviates: Homo sapiens, KMS-12-BM, read-out: KMS-12-BM IC50 IP, KMS-12-BM cells, phospho-BAD (S112) vs total BAD, 1 hour 50 min with compound.
Where [8] appears, read: Pim-1 enzyme 5 pM, ATP 1.5 μM, BAD (S112) 0.5 μM, HTRF, 22-point curve.
Where [9] appears, read: read-out: KMS-12-BM IC50 IP, KMS-12-BM cells, phospho-BAD (S112) vs total BAD, 1 hour 50 min with compound.

SMILES strings stand for the structures. Where two headings read alike, the source gives them in different places.

T1 sequence (Q9P1W9 whole entry): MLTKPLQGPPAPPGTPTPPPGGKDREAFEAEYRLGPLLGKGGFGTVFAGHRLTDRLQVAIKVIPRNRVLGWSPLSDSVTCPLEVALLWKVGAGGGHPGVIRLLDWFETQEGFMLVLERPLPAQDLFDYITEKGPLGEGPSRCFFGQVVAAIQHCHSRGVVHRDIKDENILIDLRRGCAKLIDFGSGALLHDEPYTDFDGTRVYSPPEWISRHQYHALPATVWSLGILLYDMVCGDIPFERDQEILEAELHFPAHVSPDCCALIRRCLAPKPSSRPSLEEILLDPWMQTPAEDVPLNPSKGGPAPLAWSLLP
T2 sequence (P11309 whole entry): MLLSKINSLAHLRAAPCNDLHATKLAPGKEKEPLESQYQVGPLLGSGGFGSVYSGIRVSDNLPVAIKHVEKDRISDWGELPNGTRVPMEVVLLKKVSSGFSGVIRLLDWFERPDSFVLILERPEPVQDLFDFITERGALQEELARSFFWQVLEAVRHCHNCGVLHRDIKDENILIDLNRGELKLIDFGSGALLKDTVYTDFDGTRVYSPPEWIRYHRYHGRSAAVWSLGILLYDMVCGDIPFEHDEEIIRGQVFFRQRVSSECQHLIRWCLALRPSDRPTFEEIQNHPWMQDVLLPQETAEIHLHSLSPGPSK

For orientation: IC50 means the point on the concentration scale where inhibition reaches its midpoint. `Cc1nc2cccc(-c3cc4c([nH]3)CCNC4=O)c2nc1NC(C)(C)CO` [Example 201, 2-(3-((1-hydroxy-2-methylpropan-2-yl)amino)-2-methylquinoxalin-5-yl)-6,7-dihydro-1H-pyrrolo[3,2-c]pyridin-4(5H)-one]: the IC50 worked out at 1.7 nM at Pim-2 [1] (setting [6]); 3 nM at Pim-1 [2]; 136 nM in experiment [3] (setting [7]); 2.5 nM on Pim-1 [4] (setting [8]); 2.8 nM at Pim-2 [5].
Consider `Cc1nc2cccc(-c3cc4c([nH]3)CCNC4=O)c2nc1NC1(CO)CCC1` [Example 146, 2-(3-((1-(hydroxymethyl)cyclobutyl)amino)-2-methylquinoxalin-5-yl)-6,7-dihydro-1H-pyrrolo[3,2-c]pyridin-4(5H)-one], for which the IC50 is 3 nM at Pim-2 [1] (setting [6]); 8.9 nM at Pim-1 [2]; 481 nM in experiment [3] (setting [7]); 6.5 nM at Pim-1 [4] (setting [8]); 7.9 nM at Pim-2 [5].
For `Cc1nc2cccc(-c3cc4c([nH]3)CCNC4=O)c2nc1NC1CC(F)(F)C1` [Example 145, 2-(3-((3,3-difluorocyclobutyl)amino)-2-methylquinoxalin-5-yl)-6,7-dihydro-1H-pyrrolo[3,2-c]pyridin-4(5H)-one], the IC50 on Pim-2 [1] came out at 4.6 nM; at Pim-1 [2] it was 14.2 nM; in experiment [3] (setting [7]) it was 971 nM; on Pim-1 [4], 8.7 nM; at Pim-2 [5], 8.9 nM.
Consider `Cc1nc2cccc(-c3cc4c([nH]3)CCNC4=O)c2nc1N[C@H]1CC[C@@H](N)C1` (single isomer, unassigned) [Example 143, 2-(3-((cis-3-aminocyclopentyl)amino)-2-methylquinoxalin-5-yl)-6,7-dihydro-1H-pyrrolo[3,2-c]pyridin-4(5H)-one], for which the IC50 was found to be 0.4 nM on Pim-2 [1] (setting [6]); 0.7 nM at Pim-1 [2]; 440 nM in experiment [3] (setting [9]); 0.3 nM at Pim-1 [4] (setting [8]); 0.8 nM on Pim-2 [5].
As for `Cc1nc2cccc(-c3cc4c([nH]3)CCNC4=O)c2nc1NC1(C)CCC1` [Example 144, 2-(2-methyl-3-((1-methylcyclobutyl)amino)quinoxalin-5-yl)-6,7-dihydro-1H-pyrrolo[3,2-c]pyridin-4(5H)-one], the IC50 on Pim-2 [1] (setting [6]) came out at 0.6 nM; on Pim-1 [2] it was 2 nM; in experiment [3] (setting [7]) it was 67.8 nM; at Pim-1 [4] (setting [8]), 0.8 nM; at Pim-2 [5] it was 1.6 nM.
With `Cc1nc2cccc(-c3cc4c([nH]3)CCNC4=O)c2nc1N[C@H]1CC[C@@H](N)C1` (single isomer, unassigned) [Example 142, 2-(3-((cis-3-aminocyclopentyl)amino)-2-methylquinoxalin-5-yl)-6,7-dihydro-1H-pyrrolo[3,2-c]pyridin-4(5H)-one], the IC50 on Pim-2 [1] (setting [6]) stood at 1.4 nM; at Pim-1 [2], 1.9 nM; in experiment [3] (setting [9]), 2260 nM; on Pim-1 [4] (setting [8]) it was 0.7 nM; at Pim-2 [5], 5.3 nM.
In the case of `Cc1nc2cccc(-c3cc4c([nH]3)CCNC4=O)c2nc1NC1CCC1` [Example 131, 2-(3-(cyclobutylamino)-2-methylquinoxalin-5-yl)-6,7-dihydro-1H-pyrrolo[3,2-c]pyridin-4(5H)-one], the IC50 was determined as 0.8 nM on Pim-2 [1] (setting [6]); 5 nM at Pim-1 [2]; 142 nM in experiment [3] (setting [7]); 1.6 nM on Pim-1 [4] (setting [8]); 2.6 nM on Pim-2 [5].
For `Cc1nc2cccc(-c3cc4c([nH]3)CCNC4=O)c2nc1NCC(C)(C)C` [Example 147, 2-(2-methyl-3-(neopentylamino)quinoxalin-5-yl)-6,7-dihydro-1H-pyrrolo[3,2-c]pyridin-4(5H)-one], the IC50 at Pim-2 [1] (setting [6]) is 0.6 nM; on Pim-1 [2] it was 2.9 nM; in experiment [3] (setting [7]) it was 176 nM; at Pim-1 [4] (setting [8]) it was 1.9 nM; at Pim-2 [5], 1.4 nM.
For the compound `O=C1NCCc2[nH]c(-c3cccc4ccc(NC5CCOCC5)nc34)cc21` [Example 85, 2-(2-((Tetrahydro-2H-pyran-4-yl)amino)quinolin-8-yl)-6,7-dihydro-1H-pyrrolo[3,2-c]pyridin-4(5H)-one], the IC50 at Pim-1 [2] turned out to be 4.4 nM; in experiment [3] (setting [7]), 953 nM; at Pim-2 [5] it was 22.6 nM.
Regarding `Cc1nc2cccc(-c3cc4c([nH]3)CCNC4=O)c2nc1NC1CCCCC1` [Example 132, 2-(3-(cyclohexylamino)-2-methylquinoxalin-5-yl)-6,7-dihydro-1H-pyrrolo[3,2-c]pyridin-4(5H)-one], the IC50 came out at 5.3 nM at Pim-1 [2]; 143 nM in experiment [3] (Homo sapiens, KMS-12-BM, read-out: KMS-12-BM IC50 IP); 4.9 nM at Pim-2 [5].
Take `Cc1nc2cccc(-c3cc4c([nH]3)CCNC4=O)c2nc1NC1CCCC1` [Example 130, 2-(3-(cyclopentylamino)-2-methylquinoxalin-5-yl)-6,7-dihydro-1H-pyrrolo[3,2-c]pyridin-4(5H)-one]: the concentration for half-maximal inhibition (IC50) on Pim-1 [2] came to 5.8 nM; in experiment [3] (setting [7]) it was 371 nM; at Pim-2 [5], 5.5 nM.
In the same order, the values of `O=C1NCCc2[nH]c(-c3cccc4ccc(N5CCOCC5)nc34)cc21` [Example 84, 2-(2-morpholinoquinolin-8-yl)-6,7-dihydro-1H-pyrrolo[3,2-c]pyridin-4(5H)-one] are 20.6 nM, 12200 nM and 115 nM.
Take `O=C1NCCc2[nH]c(-c3cccc4ccc(Oc5c(F)cccc5Cl)nc34)cc21` [Example 9, 2-(2-(2-chloro-6-fluorophenoxy)quinolin-8-yl)-6,7-dihydro-1H-pyrrolo[3,2-c]pyridin-4(5H)-one]: the IC50 at Pim-1 [2] is 4.6 nM; in experiment [3] (setting [7]), 6350 nM; at Pim-2 [5], 8.6 nM.
For the compound `N[C@@H]1CCC[C@H](Nc2ccc3cccc(-c4cc5c([nH]4)CCNC5=O)c3n2)C1` (single isomer, unassigned) [Example 122, 2-(2-((cis-3-aminocyclohexyl)amino)quinolin-8-yl)-6,7-dihydro-1H-pyrrolo[3,2-c]pyridin-4(5H)-one], the IC50 at Pim-1 [2] stood at 0.1 nM; in experiment [3] (setting [7]), 348 nM; at Pim-2 [5], 0.3 nM.
As to `Nc1cccc(Nc2ccc3cccc(-c4cc5c([nH]4)CCNC5=O)c3n2)c1` [Example 110, 2-(2-((3-aminophenyl)amino)quinolin-8-yl)-6,7-dihydro-1H-pyrrolo[3,2-c]pyridin-4(5H)-one], the IC50 on Pim-1 [2] came out at 1.1 nM; in experiment [3] (setting [7]), 1130 nM; at Pim-2 [5], 2.9 nM.
`Cc1nc2cccc(-c3cc4c([nH]3)CCNC4=O)c2nc1Nc1ccccc1` [Example 183, 2-(2-methyl-3-(phenylamino)quinoxalin-5-yl)-6,7-dihydro-1H-pyrrolo[3,2-c]pyridin-4(5H)-one]: the 50% inhibitory concentration (IC50) at Pim-1 [2] turned out to be 1.5 nM; in experiment [3] (setting [7]), 165 nM; on Pim-2 [5], 1.6 nM.
